Test results as given in ChEMBL document CHEMBL5257097, “An Isomer of Galidesivir That Potently Inhibits Influenza Viruses and Members of the Bunyavirales Order” (ACS Med Chem Lett, 2023).

Tests used:
[1] = (§1) Selectivity index, ratio of CC50 for cytotoxicity against African green monkey Vero cells infected with Pichinde virus assessed as reduction in cell viability by neutral red dye based analysis to EC50 for antiviral activity against Pichinde virus infected in African green monkey Vero cells assessed as reduction in viral replication by neutral red dye based analysis; format: toxicity; settings: read-out: Ratio CC50/EC50
[2] = Cytotoxicity against African green monkey Vero cells infected with Pichinde virus assessed as reduction in cell viability by visual analysis; format: toxicity, cell-based; settings: chlorocebus sabaeus
Influenza A virus [3] = test: Antiviral activity against Influenza A virus H3N2 infected in dog MDCK cells assessed as inhibition of viral replication measured after 15 to 30 mins by neutral red dye based analysis; format: functional, organism-based
[4] = Selectivity index, ratio of CC50 for cytotoxicity against dog MDCK cells infected with Influenza A virus H7N9 assessed as reduction in cell viability by visual analysis to EC50 for antiviral activity against Influenza A virus H7N9 infected in dog MDCK cells assessed as inhibition of viral replication by visual analysis; format: toxicity, cell-based; settings: read-out: Ratio CC50/EC50
[5] = Toxicity in BALB/c mouse infected with influenza A/Ca/04/09 (H1N1) assessed as mortality at 30 mg/kg, ip measured every day for 6 days; format: organism-based; settings: in vivo, time 6 day, read-out: Activity
[6] = Toxicity in BALB/c mouse infected with influenza A/Ca/04/09 (H1N1) assessed as animal survival at 10 to 300 mg/kg, ip measured every day for 6 days; format: organism-based; settings: in vivo, 144 h, dose 10-300 mg/kg, time 6 day
Rift Valley fever virus = test: Antiviral activity against Rift Valley fever virus infected in African green monkey Vero 76 cells assessed as reduction in viral yield measured for 3 days; format: functional; settings: Vero 76, 72 h, time 3 day
Oropouche virus = test: Antiviral activity against Oropouche virus infected in African green monkey Vero E6 cells assessed as inhibition of viral replication by visual analysis; format: functional, organism-based; settings: Vero C1008
[7] = Cytotoxicity against dog MDCK cells infected with Influenza B virus assessed as reduction in cell viability by visual analysis; format: toxicity, cell-based, Canis lupus familiaris
[8] = Cytotoxicity against African green monkey Vero E6 cells infected with Lymphocytic choriomeningitis virus assessed as reduction in cell viability; format: toxicity, cell-based, Vero C1008; settings: chlorocebus sabaeus
[9] = test system: Mammarenavirus choriomeningitidis; test: Antiviral activity against Lymphocytic choriomeningitis virus infected in African green monkey Vero E6 cells assessed as reduction in viral yield measured for 3 days; format: functional; settings: Vero C1008, 72 h, time 3 day
[10] = Cytotoxicity against African green monkey Vero cells infected with Pichinde virus assessed as reduction in cell viability by neutral red dye based analysis; format: toxicity; settings: chlorocebus sabaeus
[11] = Toxicity in BALB/c mouse infected with influenza A/Ca/04/09 (H1N1) assessed as mortality at 100 mg/kg, ip measured every day for 6 days; format: organism-based; settings: in vivo, time 6 day, read-out: Activity
[12] = as §1, with “Vero 76” for “Vero”, “La Crosse” for “Pichinde”, “visual” for “neutral red dye based”; format: toxicity, cell-based; settings: read-out: Ratio CC50/EC50
[13] = Toxicity in BALB/c mouse infected with A/Ca/04/09 (H1N1) assessed as animal mean day of death at 10 mg/kg, ip administered twice a day for 5 days (reference value: 9.3 +/-1.1 day ); format: organism-based; settings: in vivo, 120 h, time 5 day
Influenza A virus [14] = test: Antiviral activity against Influenza A virus H3N2 infected in dog MDCK cells assessed as inhibition of viral replication measured after 15 to 30 mins by visual analysis; format: functional, organism-based
[15] = as §1, with “Vero 76” for “Vero”, “MERS-CoV” for “Pichinde virus”, “virus-induced cytopathic effect” for “viral replication”; format: toxicity; settings: read-out: Ratio CC50/EC50
[16] = as §1, with “Vero 76” for “Vero”, “La Crosse” for “Pichinde”, “dye” for “dye based”; format: toxicity, cell-based; settings: read-out: Ratio CC50/EC50
Influenza A virus [17] = test: Antiviral activity against Influenza A virus infected in dog MDCK cells assessed as reduction in viral cytopathic effect; format: functional, organism-based
[18] = test system: Middle East respiratory syndrome-related coronavirus; test: Antiviral activity against MERS-CoV infected in vervet monkey MA-104 cells assessed as reduction in virus-induced cytopathic effect measured after 15 to 30 mins by neutral red dye based assay; format: functional, organism-based; settings: MA104

| Compound | selectivity ratio [1] | CC50 [2] [nM] | EC50 (Influenza A virus [3]) [nM] | selectivity ratio [4] | mortality at 144 h [5] [%] | Activity [6] | EC90 (Rift Valley fever virus) [nM] | EC50 (Oropouche virus) [nM] | CC50 [7] [nM] | CC50 [8] [nM] | EC90 [9] [nM] | CC50 [10] [nM] | mortality at 144 h [11] [%] | selectivity ratio [12] | Time [13] [days] | EC50 (Influenza A virus [14]) [nM] | selectivity ratio [15] | selectivity ratio [16] | EC50 (Influenza A virus [17]) [nM] | EC50 [18] [nM] |
| --- | --- | --- | --- | --- | --- | --- | --- | --- | --- | --- | --- | --- | --- | --- | --- | --- | --- | --- | --- | --- |
| Nc1ncnn2c([C@@H]3N[C@H](CO)[C@@H](O)[C@H]3O)ccc12 | 28 | 16000 | 310 | 76 | 15 | Non-Toxic | 97 | 390 | 12000 | 12000 | 150 | 8400 | 72 | > 240 | 12 | 320 | 15 | > 240 |  |  |
| Nc1ncnc2c([C@@H]3N[C@H](CO)[C@@H](O)[C@H]3O)c[nH]c12 [GALIDESIVIR] |  |  |  |  |  |  |  |  |  |  |  |  |  |  |  |  |  |  | 1000 | 36000 |
